From US10913727B2, “Modulators of the integrated stress pathway” (Calico Life Sciences LLC, priority 2016, dated 2021) come the findings set out here.

The assay deals with HEK293T cells carrying the ATF4 luciferase reporter. Put plainly: ATF4-Luc assay, in vitro model of Vanishing Cell White Matter Disease (VWMD). It counts as cell-based. Particulars: Homo sapiens, HEK-293T, 1 μg/mL tunicamycin, 7 hours, One Glo luminescence. Put shortly:
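Stable HEK293T line with human ATF4 5′-UTR–firefly luciferase reporter treated with 1 μg/mL tunicamycin plus 200 nM compound for 7 h. Luminescence read; EC50 derived.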
A word on the EC50: it is the concentration at which the effect is half-maximal. Take `CC(C)Oc1ccc(C(=O)NC23CC(NC(=O)COc4ccc(Cl)c(F)c4)(C2)C3)cc1` [Compound 232, N-{3-[2-(4-chloro-3-fluorophenoxy)acetamido]bicyclo[1.1.1]pentan-1-yl}-4-[(propan-2-yl)oxy]benzamide]: the EC50 lay within 50 to 250 nM. Take `O=C(COc1ccc(Cl)c(F)c1)NC12CCC(NC(=O)c3ccc(Cl)cn3)(CC1)C[C@@H]2O` [Compound 730, 5-chloro-N-{(3S)-4-[2-(4-chloro-3-fluorophenoxy)acetamido]-3-hydroxybicyclo[2.2.2]octan-1-yl}pyridine-2-carboxamide]: the EC50 lay within 50 to 250 nM. Consider `CCc1ccnc(C(=O)NC23CCC(NC(=O)COc4ccc(Cl)c(F)c4)(CC2)C(O)C3)c1` (centres unmarked) [Compound 918, N-{4-[2-(4-chloro-3-fluorophenoxy)acetamido]-3-hydroxybicyclo[2.2.2]octan-1-yl}-4-ethylpyridine-2-carboxamide], for which the concentration giving a half-maximal response (EC50) fell in the range of 250 to 1000 nM.

For the molecule `Cc1nocc1C(=O)NC12CC(NC(=O)COc3ccc(Cl)c(F)c3)(C1)C2` [Compound 879, N-{3-[2-(4-chloro-3-fluorophenoxy)acetamido]bicyclo[1.1.1]pentan-1-yl}-3-methyl-1,2-oxazole-4-carboxamide], the EC50 is above 2000 nM.

With `CC(C)c1csc(C(=O)NC23CC(NC(=O)COc4ccc(Cl)c(F)c4)(C2)C3)n1` [Compound 406, N-{3-[2-(4-chloro-3-fluorophenoxy)acetamido]bicyclo[1.1.1]pentan-1-yl}-4-(propan-2-yl)-1,3-thiazole-2-carboxamide], the EC50 was 50 to 250 nM.

Regarding `Cc1cnc(C(=O)NC23CCC(NC(=O)COc4ccc(Cl)c(Cl)c4)(C2)C3)cn1` [Compound 142, N-{4-[2-(3,4-dichlorophenoxy)acetamido]bicyclo[2.1.1]hexan-1-yl}-5-methylpyrazine-2-carboxamide], the EC50 lay in the range of 250 to 1000 nM. As for `Cc1cc(Cl)cnc1C(=O)NC12CC(NC(=O)COc3ccc(Cl)c(F)c3)(C1)C2` [Compound 777, 5-chloro-N-{3-[2-(4-chloro-3-fluorophenoxy)acetamido]bicyclo[1.1.1]pentan-1-yl}-3-methylpyridine-2-carboxamide], the EC50 was above 2000 nM. Take `O=C(COc1ccc(Cl)c(F)c1)NC12CC(NC(=O)c3ccnc(C(=O)O)c3)(C1)C2` [Compound 280, 4-({3-[2-(4-chloro-3-fluorophenoxy)acetamido]bicyclo[1.1.1]pentan-1-yl}carbamoyl)pyridine-2-carboxylic acid]: the EC50 was above 2000 nM. For `O=C(COc1ccc(Cl)c(F)c1)NC12CC(Nc3cnccn3)(C1)C2` [Compound 725, 2-(4-chloro-3-fluorophenoxy)-N-{3-[(pyrazin-2-yl)amino]bicyclo[1.1.1]pentan-1-yl}acetamide], the concentration giving a half-maximal response (EC50) was 1000 to 2000 nM. Consider `Cc1cc2c(NC34CC(NC(=O)COc5ccc(OC(F)F)cc5)(C3)C4)nccn2n1` [Compound 438, 2-[4-(difluoromethoxy)phenoxy]-N-{3-[(2-methylpyrazolo[1,5-a]pyrazin-4-yl)amino]bicyclo[1.1.1]pentan-1-yl}acetamide], for which the EC50 fell in the range of 250 to 1000 nM. With `CSc1sc(C(=O)NC23CC(NC(=O)COc4ccc(Cl)c(F)c4)(C2)C3)cc1C#N` [Compound 897, N-{3-[2-(4-chloro-3-fluorophenoxy)acetamido]bicyclo[1.1.1]pentan-1-yl}-4-cyano-5-(methylsulfanyl)thiophene-2-carboxamide], the EC50 is above 2000 nM. Consider `CC(=O)N1CCC(c2ncc(C(=O)NC34CC(NC(=O)COc5ccc(Cl)c(Cl)c5)(C3)C4)o2)CC1` [Compound 149, 2-(1-acetylpiperidin-4-yl)-N-{3-[2-(3,4-dichlorophenoxy)acetamido]bicyclo[1.1.1]pentan-1-yl}-1,3-oxazole-5-carboxamide], for which the EC50 was in the range of 1000 to 2000 nM. Consider `O=C(COc1ccc(Cl)c(F)c1)NC12CC(NC(=O)c3cc(F)cc(F)c3)(C1)C2` [Compound 513, N-{3-[2-(4-chloro-3-fluorophenoxy)acetamido]bicyclo[1.1.1]pentan-1-yl}-3,5-difluorobenzamide], for which the EC50 is 50 to 250 nM. The same measure for `CCc1nc(C(=O)NC23CC(NC(=O)COc4ccc(Cl)c(F)c4)(C2)C3)co1` [Compound 251, N-{3-[2-(4-chloro-3-fluorophenoxy)acetamido]bicyclo[1.1.1]pentan-1-yl}-2-ethyl-1,3-oxazole-4-carboxamide]: 50 to 250 nM. On to `O=C(COc1ccc(Cl)c(Cl)c1)NC12CC(NC(=O)c3ccncn3)(C1)C2` [Compound 261, N-{3-[2-(3,4-dichlorophenoxy)acetamido]bicyclo[1.1.1]pentan-1-yl}pyrimidine-4-carboxamide], for which the EC50 was in the range of 250 to 1000 nM. Regarding `O=C(COc1ccc(Cl)c(F)c1)NC12CC(Nc3cc(-c4ccc(Cl)cc4)ccn3)(C1)C2` [Compound 415, 2-(4-chloro-3-fluorophenoxy)-N-(3-{[4-(4-chlorophenyl)pyridin-2-yl]amino}bicyclo[1.1.1]pentan-1-yl)acetamide], the 50% effective concentration (EC50) was above 2000 nM. With `O=C(COc1ccc(Cl)c(F)c1)NC12CCC(NC(=O)c3ccc(OC(F)(F)F)nc3)(C1)C2` [Compound 298, N-{4-[2-(4-chloro-3-fluorophenoxy)acetamido]bicyclo[2.1.1]hexan-1-yl}-6-(trifluoromethoxy)pyridine-3-carboxamide], the concentration giving a half-maximal response (EC50) lay in the range of 50 to 250 nM. `COCc1ccc(C(=O)NC23CC(NC(=O)COc4ccc(Cl)c(F)c4)(C2)C3)cc1` [Compound 552, N-{3-[2-(4-chloro-3-fluorophenoxy)acetamido]bicyclo[1.1.1]pentan-1-yl}-4-(methoxymethyl)benzamide]: the EC50 lay in the range of 50 to 250 nM. Regarding `O=C(COc1ccc(Cl)c(F)c1)NC12CC(NC(=O)c3cc(CO)ccn3)(C1)C2` [Compound 178, N-{3-[2-(4-chloro-3-fluorophenoxy)acetamido]bicyclo[1.1.1]pentan-1-yl}-4-(hydroxymethyl)pyridine-2-carboxamide], the EC50 was in the range of 50 to 250 nM. The same measure for `COc1nccnc1C(=O)NC12CCC(NC(=O)COc3ccc(Cl)c(F)c3)(CC1)C(O)C2` (centres unmarked) [Compound 274, N-{4-[2-(4-chloro-3-fluorophenoxy)acetamido]-3-hydroxybicyclo[2.2.2]octan-1-yl}-3-methoxypyrazine-2-carboxamide]: 250 to 1000 nM. Consider `CCc1noc(C)c1C(=O)NC12CC(NC(=O)COc3ccc(Cl)c(F)c3)(C1)C2` [Compound 824, N-{3-[2-(4-chloro-3-fluorophenoxy)acetamido]bicyclo[1.1.1]pentan-1-yl}-3-ethyl-5-methyl-1,2-oxazole-4-carboxamide], for which the EC50 is above 2000 nM. Take `Cc1nnc(C(=O)NC23CCC(NC(=O)COc4ccc(Cl)c(F)c4)(CC2)C(O)C3)o1` (centres unmarked) [Compound 516, N-{4-[2-(4-chloro-3-fluorophenoxy)acetamido]-3-hydroxybicyclo[2.2.2]octan-1-yl}-5-methyl-1,3,4-oxadiazole-2-carboxamide]: the half-maximal effective concentration (EC50) was 1000 to 2000 nM. As for `O=C(COc1ccc(Cl)c(F)c1)NC12CCC(NC(=O)c3ccncc3)(CC1)C(O)C2` (centres unmarked) [Compound 218, N-{4-[2-(4-chloro-3-fluorophenoxy)acetamido]-2-hydroxybicyclo[2.2.2]octan-1-yl}pyridine-4-carboxamide], the EC50 is above 2000 nM. For the molecule `Cc1nn(C)c2c(NC34CC(NC(=O)COc5ccc(Cl)c(F)c5)(C3)C4)ncnc12` [Compound 426, 2-(4-chloro-3-fluorophenoxy)-N-{3-[(1,3-dimethyl-1H-pyrazolo[4,3-d]pyrimidin-7-yl)amino]bicyclo[1.1.1]pentan-1-yl}acetamide], the concentration for a half-maximal effect (EC50) was above 2000 nM.

Turning to `N#Cc1ccc(C(=O)NC23CC(NC(=O)COc4ccc(Cl)c(F)c4)(C2)C3)cc1F` [Compound 371, N-{3-[2-(4-chloro-3-fluorophenoxy)acetamido]bicyclo[1.1.1]pentan-1-yl}-4-cyano-3-fluorobenzamide], the EC50 lay within 50 to 250 nM. `O=C(COc1ccc(Cl)c(F)c1)NC12CC(NC(=O)c3cnsn3)(C1)C2` [Compound 895, N-{3-[2-(4-chloro-3-fluorophenoxy)acetamido]bicyclo[1.1.1]pentan-1-yl}-1,2,5-thiadiazole-3-carboxamide]: the EC50 fell in the range of 250 to 1000 nM. Regarding `Cc1noc2ncc(C(=O)NC34CC(NC(=O)COc5ccc(Cl)c(F)c5)(C3)C4)cc12` [Compound 791, N-{3-[2-(4-chloro-3-fluorophenoxy)acetamido]bicyclo[1.1.1]pentan-1-yl}-3-methyl[1,2]oxazolo[5,4-b]pyridine-5-carboxamide], the concentration giving a half-maximal response (EC50) is above 2000 nM.

`Cc1cc(C(=O)NC23CC(NC(=O)COc4ccc5c(c4)OC(F)(F)O5)(C2)C3)n(C)n1` [Compound 442, N-(3-{2-[(2,2-difluoro-2H-1,3-benzodioxol-5-yl)oxy]acetamido}bicyclo[1.1.1]pentan-1-yl)-1,3-dimethyl-1H-pyrazole-5-carboxamide]: the EC50 was 250 to 1000 nM. For `O=C(COc1ccc(C(F)(F)F)nc1)NC12CC(NC(=O)c3ccc(OC(F)(F)F)cn3)(C1)C2` [Compound 454, 5-(trifluoromethoxy)-N-[3-(2-{[6-(trifluoromethyl)pyridin-3-yl]oxy}acetamido)bicyclo[1.1.1]pentan-1-yl]pyridine-2-carboxamide], the EC50 lay in the range of 50 to 250 nM. Regarding `O=C(COc1ccc(Cl)c(F)c1)NC12CCC(NC(=O)c3ccc(C(F)(F)F)cn3)(CC1)C[C@@H]2O` [Compound 728, N-{(3S)-4-[2-(4-chloro-3-fluorophenoxy)acetamido]-3-hydroxybicyclo[2.2.2]octan-1-yl}-5-(trifluoromethyl)pyridine-2-carboxamide], the EC50 was below 50 nM.

Regarding `O=C(COc1ccc(Cl)c(F)c1)NC12CC(NC(=O)c3cc(C(F)(F)F)no3)(C1)C2` [Compound 380, N-{3-[2-(4-chloro-3-fluorophenoxy)acetamido]bicyclo[1.1.1]pentan-1-yl}-3-(trifluoromethyl)-1,2-oxazole-5-carboxamide], the EC50 lay in the range of 250 to 1000 nM.

For the molecule `CN(C)Cc1ccccc1C(=O)NC12CC(NC(=O)COc3ccc(Cl)c(F)c3)(C1)C2` [Compound 542, N-{3-[2-(4-chloro-3-fluorophenoxy)acetamido]bicyclo[1.1.1]pentan-1-yl}-2-[(dimethylamino)methyl]benzamide], the EC50 was above 2000 nM.
